Results reported in patent publication US20150315241A1, “Antibiotic Peptides” (priority 2007, published 2015).
≈ marks a conversion by molar mass, not a printed value. Where two headings read alike, the source gives them in different places. Where a SMILES comes first, the peptide text is derived from it. [ ]: non-standard residue; d: D form. The star is where a group is joined. Orn(α-tetramethylguanidino) = CN(C)C(=N[C@@H](CCCN)C(=O)*)N(C)C; hArg = N=C(N)NCCCC[C@H](N)C(=O)O; Orn = NCCC[C@H](N)C(=O)O; For = O=C*

Key:
in vitro = in vitro ADME, mouse; conditions: 37° C.
Experimental: Serum stability studies were carried out in duplicate as described by Hoffmann et al.. Briefly, 28 μL of an aqueous peptide or peptidomimetics solution (0.5 mg/mL) was added to 0.2 mL freshly pooled 25% mouse serum (Sigma-Aldrich GmbH, Taufkirchen, Germany) in water. The mixtures were incubated at 37° C. under gentle stirring. The proteins were precipitated with 40 μL of 15% aqueous TCA after incubation times of 0, 0.5, 1, 2, 4 and 6 h at 0° C. for 20 min before centrifuged (13500×G) at 4° C. for 5 min. The supernatants of all samples (240 μL) were neutralized with 1 mol/L aqueous NaOH and immediately stored at −20° C. The supernatants were analyzed by RP-HPLC using a linear acetonitrile gradient as described above with 0.1% TFA as ion pair reagent. Collected fractions of the main peaks were further analyzed by tandem mass spectrometry (MALDI-TOF/TOF-MS, 4700 Proteomics Analyzer, Applied Biosystems GmbH, Weiterstadt, Germany) in positive ion reflector mode using α-cyanohydroxycinnamic acid (50% CH3CN in 0.1% aqueous TFA) as matrix to identify the degradation products of the peptides and peptidomimetics, i.e., metabolites, at the different time points. Serum control samples consisted of 200 μL of pooled 25% mouse serum in water, which were also precipitated with 40 μL 15% aqueous TCA, as described before. Peptide reference samples consisted of 28 μL of the peptide stock solution diluted in 0.2 mL water and 40 μL of 15% aqueous trichloroacetic acid (TCA).

E. coli 45849 = test: Growth inhibition assay (MIC); format: cell-based, Escherichia coli; conditions: multidrug resistant strain; 1% TSB, 37° C., 20 hrs
In short: (§1)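 Growth is measured at 595 nm after the bacteria, set to 5×10^6 CFU/mL in 1% TSB, sit with two-fold dilutions of peptide for 20 hrs at 37° C. Final peptide spans 125 μg/mL to 60 ng/mL.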

S. typhi S5 = format: cell-based, Salmonella typhi
In short: as §1

E. coli D31 = format: cell-based, Escherichia coli
In short: as §1

K. Pneumonia 123132 = test: Growth inhibition assay (MIC); format: cell-based, Klebsiella pneumoniae; conditions: multidrug resistant strain; 1% TSB, 37° C., 20 hrs
In short: as §1

[1] = tested on: K. Pneumonia K6, ATCC 700603; test: Growth inhibition assay (MIC); format: cell-based, Klebsiella pneumoniae; conditions: multidrug resistant strain; 1% TSB, 37° C., 20 hrs
In short: as §1

[2] = tested on: S. enterica subsp. Enterica serovar. typhi G10215 ATCC 700408; format: cell-based, Salmonella enterica
In short: as §1

E. coli BL 21 AI = test: Growth inhibition assay (MIC); format: cell-based, Escherichia coli; conditions: 1% TSB, 37° C., 20 hrs
In short: (§2)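 Bacteria grown overnight in NB at 37° C. were adjusted to 5×10^6 CFU/mL in 1% TSB and mixed 1:1 with a two-fold peptide series (final 125 μg/mL–60 ng/mL). After 20 hrs at 37° C., A595 was read; triplicates.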

M. luteus ATCC 10240 = format: cell-based, Micrococcus luteus
In short: as §2

E. coli 10233 = format: cell-based, Escherichia coli
Experimental: (§3) The minimal inhibition concentrations (MIC) of the apidaecin-derived peptides and peptide-derivatives were determined by a growth inhibition assay using a serial peptide dilution in sterilized round-bottom 96-well plates (polystyrene, U-bottom, Greiner Bio-One GmbH) with a final volume of 100 μL per well. The bacteria, e.g., E. coli BL21 A1, were grown in nutrient broth (NB, Carl Roth GmbH+Co. KG, Karlsruhe, Germany) at 37° C. over night. To each well of the 96-well plate, 50 μL of the overnight culture adjusted to 5×10^6 CFU/mL in 1% TSB were added. Lyophilized peptides and peptidomimetics were dissolved in 1% TSB (tryptic soy broth) or water to give a final concentration of 250 μg/mL. Fifty μL of the peptide or peptidomimetics solution were added to the first well of a row on the plate and mixed. Fifty μL of the first well containing the peptide solution were transferred to the second well, mixed and again 50 μL transferred to the next well and so on. Thereby, a two-fold dilution series was obtained starting at 250 μg/mL in the first well down to 120 ng/mL in the 12th well of a row giving a final peptide or peptidomimetics concentration from 125 μg/mL (well 1) to 60 ng/mL (well 12). Plates were incubated at 37° C. for 20 hrs. The absorbance was measured at 595 nm using a TECAN micro plate spectrophotometer (Tecan, Germany). All peptides and peptidomimetics were measured in triplicates. Sterilized water was used as a negative control.
(§4) The bacteria strains were tested: • Eschericha coli 1103, 10233, BL 21 AI, DC 2, • Klebsiella pneumoniae 681, • Micrococcus luteus ATCC 10240, • Mycobacterium vaccae • Bactillus subtillis 347.

K. pneumonia 681 = format: cell-based, Klebsiella pneumoniae
Experimental: as §3, §4

B. subtilis 347 = format: cell-based, Bactillus subtillis
Experimental: as §3, §4

E. coli 1103 = format: cell-based, Escherichia coli; conditions: 1103, 20 h
Experimental: as §3, §4

[3] = 25% aqueous mouse serum, read-out: Half-life time
[4] = multidrug resistant strain, 1% TSB, 37° C., 20 hrs

Molecule	half-life at 0.061 mg/mL (in vitro; [3])	MIC E. coli 45849 (E. coli 45849)	MIC S. typhi S5 (S. typhi S5; S5, 20 h)	MIC E. coli D31 (E. coli D31; D31, 20 h)	MIC K. Pneumonia 123132 (K. Pneumonia 123132)	MIC K. Pneumonia K6, ATCC 700603 [1]	MIC S. enterica subsp. Enterica serovar. typhi G10215 ATCC 700408 ([2]; ATCC 700408, 20 h)	MIC E. coli BL 21 AI (E. coli BL 21 AI)	MIC M. luteus ATCC 10240 (M. luteus ATCC 10240; ATCC 10240, 20 h)	MIC E. coli 1103 (E. coli 1103)	MIC K. pneumonia 681 (K. pneumonia 681; 20 h)	MIC B. subtilis 347 (B. subtilis 347; 347, 20 h)	other results
CC[C@H](C)[C@H](NC(=O)[C@H](Cc1ccc(O)cc1)NC(=O)[C@@H](NC(=O)[C@@H]1CCCN1C(=O)[C@H](CCCNC(=N)N)NC(=O)[C@H](CC(N)=O)NC(=O)[C@H](CC(N)=O)NC(=O)[C@@H](N)CCCN)C(C)C)C(=O)N1CCC[C@H]1C(=O)N[C@@H](CCCNC(=N)N)C(=O)N1CCC[C@H]1C(=O)N[C@@H](CCCNC(=N)N)C(=O)N1CCC[C@H]1C(=O)N1CCC[C@H]1C(=O)N[C@@H](Cc1c[nH]cn1)C(=O)N1CCC[C@H]1C(=O)N[C@@H](CCCN)C(=O)N[C@@H](CC(C)C)C(N)=O [compound 81] (H-[Orn]NNRPVYIPRPRPPHP[Orn]L-NH2)	2 h	8 µg/mL (≈ 3.72 µM)	4 µg/mL (≈ 1.86 µM)	8 µg/mL (≈ 3.72 µM)	8 µg/mL (≈ 3.72 µM)	16 µg/mL (≈ 7.44 µM)	4 µg/mL (≈ 1.86 µM)	–	–	–	–	–	–
85 (GNNRPVYIPQPRPPHPRL) [compound 85]	–	2 µg/mL	–	–	16 µg/mL	64 µg/mL	–	0.24 µg/mL	–	–	–	–	MIC S. typhi S5 (S. typhi S5; [4]): 0.5 µg/mL; MIC E. coli D31 (E. coli D31; [4]): 16 µg/mL; MIC S. enterica subsp. Enterica serovar. typhi G10215 ATCC 700408 [2, 4]: 0.5 µg/mL; MIC M. luteus ATCC 10240 (M. luteus ATCC 10240; 1% TSB, 37° C., 20 hrs): 15.63 µg/mL; MIC E. coli 10233 (E. coli 10233; 1% TSB, 37° C., 20 hrs): 1.95 µg/mL; MIC K. pneumonia 681 (K. pneumonia 681; 1% TSB, 37° C., 20 hrs): 31.25 µg/mL; MIC B. subtilis 347 (B. subtilis 347; 1% TSB, 37° C., 20 hrs): >125 µg/mL
CC[C@H](C)[C@H](NC(=O)[C@H](Cc1ccc(O)cc1)NC(=O)[C@@H](NC(=O)[C@@H]1CCCN1C(=O)[C@H](CCCNC(=N)N)NC(=O)[C@H](CC(N)=O)NC(=O)[C@H](CC(N)=O)NC(=O)[C@H](CCCN)NC(C)=O)C(C)C)C(=O)N1CCC[C@H]1C(=O)N[C@@H](CCCNC(=N)N)C(=O)N1CCC[C@H]1C(=O)N[C@@H](CCCNC(=N)N)C(=O)N1CCC[C@H]1C(=O)N1CCC[C@H]1C(=O)N[C@@H](Cc1c[nH]cn1)C(=O)N1CCC[C@H]1C(=O)N[C@@H](CCCN)C(=O)N[C@@H](CC(C)C)C(N)=O [compound 82] (Ac-[Orn]NNRPVYIPRPRPPHP[Orn]L-NH2)	> 6 h	16 µg/mL (≈ 7.3 µM)	8 µg/mL (≈ 3.65 µM)	32 µg/mL (≈ 14.6 µM)	8 µg/mL (≈ 3.65 µM)	32 µg/mL (≈ 14.6 µM)	8 µg/mL (≈ 3.65 µM)	–	–	–	–	–	half-life (in vitro; 25% aqueous serum): The same stability
CC[C@H](C)[C@H](NC(=O)[C@H](Cc1ccc(O)cc1)NC(=O)[C@@H](NC(=O)[C@@H]1CCCN1C(=O)[C@H](CCCNC(=N)N)NC(=O)[C@H](CC(N)=O)NC(=O)[C@H](CC(N)=O)NC(=O)[C@H](CCCN)NC(C)=O)C(C)C)C(=O)N1CCC[C@H]1C(=O)N[C@@H](CCCNC(=N)N)C(=O)N1CCC[C@H]1C(=O)N[C@@H](CCCNC(=N)N)C(=O)N1CCC[C@H]1C(=O)N1CCC[C@H]1C(=O)N[C@@H](Cc1c[nH]cn1)C(=O)N1CCC[C@H]1C(=O)N[C@@H](CCCCNC(=N)N)C(=O)N[C@@H](CC(C)C)C(N)=O [compound 131] (Ac-[Orn]NNRPVYIPRPRPPHP[hArg]L-NH2)	2 h	–	–	–	–	–	–	4 µg/mL (≈ 1.78 µM)	0.5 µg/mL (≈ 0.222 µM)	16 µg/mL (≈ 7.12 µM)	16 µg/mL (≈ 7.12 µM)	32 µg/mL (≈ 14.2 µM)	–
CC[C@H](C)[C@H](NC(=O)[C@H](Cc1ccc(O)cc1)NC(=O)[C@@H](NC(=O)[C@@H]1CCCN1C(=O)[C@H](CCCNC(=N)N)NC(=O)[C@H](CC(N)=O)NC(=O)[C@H](CC(N)=O)NC(=O)CNC=O)C(C)C)C(=O)N1CCC[C@H]1C(=O)N[C@@H](CCC(N)=O)C(=O)N1CCC[C@H]1C(=O)N[C@@H](CCCNC(=N)N)C(=O)N1CCC[C@H]1C(=O)N1CCC[C@H]1C(=O)N[C@@H](Cc1c[nH]cn1)C(=O)N1CCC[C@H]1C(=O)N[C@@H](CCCNC(=N)N)C(=O)N[C@@H](CC(C)C)C(N)=O [compound 84] (For-GNNRPVYIPQPRPPHPRL-NH2)	–	0.5 µg/mL (≈ 0.234 µM)	0.25 µg/mL (≈ 0.117 µM)	1 µg/mL (≈ 0.468 µM)	32 µg/mL (≈ 15 µM)	32 µg/mL (≈ 15 µM)	0.25 µg/mL (≈ 0.117 µM)	1.95 µg/mL (≈ 0.913 µM)	3.91 µg/mL (≈ 1.83 µM)	–	62.5 µg/mL (≈ 29.3 µM)	>125 µg/mL	MIC E. coli 10233 (E. coli 10233; 10233, 20 h): 1.95 µg/mL (≈ 0.913 µM)
CC[C@H](C)[C@H](NC(=O)[C@H](Cc1ccc(O)cc1)NC(=O)[C@@H](NC(=O)[C@@H]1CCCN1C(=O)[C@H](CCCNC(=N)N)NC(=O)[C@H](CC(N)=O)NC(=O)[C@H](CC(N)=O)NC(=O)[C@H](CCCN)N=C(N(C)C)N(C)C)C(C)C)C(=O)N1CCC[C@H]1C(=O)N[C@@H](CCCNC(=N)N)C(=O)N1CCC[C@H]1C(=O)N[C@@H](CCCNC(=N)N)C(=O)N1CCC[C@H]1C(=O)N1CCC[C@H]1C(=O)N[C@@H](Cc1c[nH]cn1)C(=O)N1CCC[C@H]1C(=O)N[C@@H](CCCCNC(=N)N)C(=O)N[C@@H](CC(C)C)C(N)=O [compound 155] ({Orn(α-tetramethylguanidino)}-NNRPVYIPRPRPPHP[hArg]L-NH2)	–	4 µg/mL (≈ 1.74 µM)	4 µg/mL (≈ 1.74 µM)	4 µg/mL (≈ 1.74 µM)	2 µg/mL (≈ 0.868 µM)	4 µg/mL (≈ 1.74 µM)	0.5 µg/mL (≈ 0.217 µM)	4 µg/mL (≈ 1.74 µM)	1 µg/mL (≈ 0.434 µM)	4 µg/mL (≈ 1.74 µM)	4 µg/mL (≈ 1.74 µM)	32 µg/mL (≈ 13.9 µM)	half-life (in vitro; [3]): > 6 h
CC[C@H](C)[C@H](NC(=O)[C@H](Cc1ccc(O)cc1)NC(=O)[C@@H](NC(=O)[C@@H]1CCCN1C(=O)[C@H](CCCNC(=N)N)NC(=O)[C@H](CC(N)=O)NC(=O)[C@H](CC(N)=O)NC(=O)[C@H](CCCN)N=C(N(C)C)N(C)C)C(C)C)C(=O)N1CCC[C@H]1C(=O)N[C@@H](CCCNC(=N)N)C(=O)N1CCC[C@H]1C(=O)N[C@@H](CCCNC(=N)N)C(=O)N1CCC[C@H]1C(=O)N1CCC[C@H]1C(=O)N[C@@H](Cc1c[nH]cn1)C(=O)N1CCC[C@H]1C(=O)N[C@@H](CCCN)C(=O)N[C@@H](CC(C)C)C(N)=O [compound 134] ({Orn(α-tetramethylguanidino)}-NNRPVYIPRPRPPHP[Orn]L-NH2; N-terminus and C-terminus assumed)	–	–	–	–	–	–	–	–	4 µg/mL (≈ 1.78 µM)	32 µg/mL (≈ 14.2 µM)	16 µg/mL (≈ 7.12 µM)	>128 µg/mL	half-life (in vitro; [3]): > 6 h
